The conditions of data set [1]: for mass density: 298.15 K, 101.33 kPa, Liquid, Vibrating tube method.
Data set [2] in a line: Molar enthalpy of transition or fusion. Particulars: Crystal; DSC.

Numbers after ± are expanded uncertainties.

What is called mass density is the mass of a sample divided by its volume. Regarding `CCn1cc[n+](CC)c1.O=S(=O)([N-]S(=O)(=O)C(F)(F)F)C(F)(F)F` [1,3-diethylimidazolium bis[(trifluoromethyl)sulfonyl]imide], in data set [1], the mass density stood at 1476 ± 15 kg/m3. The Normal melting temperature in data set [1] (Crystal, DTA) was -10.5 ± 0.4 °C. The Glass transition temperature in data set [1] (DTA) is -67.2 ± 3 °C. Besides, the “Molar enthalpy of transition or fusion” value in data set [2] worked out at 4.88 ± 0.191 kcal/mol.

Take `CCCCCCn1cc[n+](CC)c1.O=S(=O)([N-]S(=O)(=O)C(F)(F)F)C(F)(F)F` [1-hexyl-3-ethylimidazolium bis(trifluoromethylsulfonyl)imide]: the mass density in data set [1] is given as 1345.4 ± 13 kg/m3. The Glass transition temperature in data set [1] (DTA) is -88.3 ± 3 °C.

Turning to `CCCC[n+]1ccn(CC)c1.O=S(=O)([N-]S(=O)(=O)C(F)(F)F)C(F)(F)F`, the mass density in data set [1] is listed as 1401.8 ± 14 kg/m3. Besides, the Glass transition temperature in data set [1] (DTA) is -92.2 ± 3 °C.

Take `CCCC[n+]1ccn(CC)c1.F[P-](F)(F)(F)(F)F` [1-butyl-3-ethylimidazolium hexafluorophosphate]: in data set [1], the mass density came out at 1327.6 ± 12 kg/m3. Further, the Glass transition temperature in data set [1] (DTA) is -80.2 ± 3 °C.

The record behind these values is the NIST ThermoML archive (doi:10.1021/je700693z).
